Laboratory results taken from US20250011265A1, “COMPOSITIONS AND METHODS FOR PRODUCTION OF ANTIMICROBIAL AGENTS FROM BIO-RENEWABLE FEEDSTOCKS” (SOLUGEN, INC., priority 2022, published 2025).
≈ marks a conversion by molar mass, not a printed value.

Columns and labels:
[1] = tested on: General Wild Strain Bacteria (Pseudomonas aeruginosa and Enterobacter aggolomerans); test: Microtiter MIC study, general aerobic bacteria; format: cell-based
Protocol: (§1) All three different heat incubated GDA samples were tested as antimicrobial agents with several different industrially relevant bacteria. The General Aerobic Bacteria isolated and used for this testing were identified as Pseudomonas aeruginosa and Enterobacter aggolomerans. Wild strain Sulfate Reducing Bacteria and Acid Producing Bacteria isolated from the produced fluids was also used. They were placed in a microtiter plate, where a high throughput test can be performed to determine MIC (minimum inhibitor concentration). Samples were tested at the following doses (1000, 500, 250, 125, 62.5, 31.2, 15.6, 7.8, 3.9, and 1.95 ppm) and concentration was calculated based on the initial GDA concentration (15 w/v %).
(§2) The antimicrobial testing results shown in FIG. 13 summarizes the MIC of each sample for different bacteria. The MIC is determined after 24 hours of incubation for the bacterial plates.

[2] = tested on: SRB (Sulfate Reducing Bacteria); test: Microtiter MIC study, sulfate reducing bacteria; format: cell-based, Wild strain Sulfate Reducing Bacteria; conditions: 24 hours incubation; concentration based on initial GDA concentration (15 w/v %)
Protocol: as §1, §2

[3] = tested on: APB (Acid Producing Bacteria); test: Microtiter MIC study, acid producing bacteria; format: cell-based; conditions: 24 hours incubation; concentration based on initial GDA concentration (15 w/v %)
Protocol: as §1, §2

MIC ([1]; Pseudomonas aeruginosa, 24 hours incubation, concentration based on initial GDA concentration (15 w/v %)) [µg/mL] | MIC, SRB (Sulfate Reducing Bacteria) [2] [ppm] | MIC [3] [µg/mL] | SMILES | antimicrobial activity ([1]; inferred from Sample C result, all three bacteria tested)
 |  |  | Oc1ccc(O)c(O)c1O (single isomer, unassigned) [1,2,3,4-tetrahydroxybenzene] | good antimicrobial activity
1000 (≈ 9.99 mM) | 500 | 500 (≈ 4.99 mM) | O=CCCCC=O [Glutaraldehyde - 50%, Glutaraldehyde] | 
